# Values of other authors as cited in patent publication US20090226517A1, “PHARMACEUTICAL FORMULATIONS COMPRISING DULOXETINE” (priority 2008, published 2009).
# Details: background statement; limited aqueous solubility
smiles,measurement,value
CNCC[C@H](Oc1cccc2ccccc12)c1cccs1 [Duloxetine],BCS class,BCS class II
